These results are taken from publication PMC7290078, “Agonist bias and agonist‐dependent antagonism at corticotrophin releasing factor receptors” (Pharmacology Research & Perspectives, 2020).

Where two headings read alike, the source gives them in different places. No end group written: not given here.

In test [1] the target is T1, CRF1 receptor (hCRF1α) (Homo sapiens, UniProt P34998).
T1 construct: host or cells: Cos7 cells, transient transfection (PEI), pcDNA3.0/3.1 vector
T1 sequence (P34998 24-415): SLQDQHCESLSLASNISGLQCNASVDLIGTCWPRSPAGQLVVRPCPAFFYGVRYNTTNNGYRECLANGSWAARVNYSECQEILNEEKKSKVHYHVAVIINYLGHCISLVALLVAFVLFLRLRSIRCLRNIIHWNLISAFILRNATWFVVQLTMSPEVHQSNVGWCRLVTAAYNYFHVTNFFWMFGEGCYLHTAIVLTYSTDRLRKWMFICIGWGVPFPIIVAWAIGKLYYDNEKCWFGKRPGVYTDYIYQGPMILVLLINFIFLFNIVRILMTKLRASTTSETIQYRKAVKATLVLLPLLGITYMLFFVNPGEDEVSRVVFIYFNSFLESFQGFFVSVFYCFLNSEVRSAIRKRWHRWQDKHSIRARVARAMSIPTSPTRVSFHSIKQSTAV
As to the kind of experiment: cAMP accumulation (LANCE) in Cos7 cells transfected with hCRF1α, agonist stimulation. Format: cell-based. Particulars: cAMP, CRF1 receptor, antagonist alone, n = 3. An excerpt: (§1) Plasmids containing hCRF1α and hCRF2α (GenBank accession numbers AY457172 and AY449734) were obtained from the cDNA Resource Centre (Bloomsburg University) and are referred to as CRF1 and CRF2 in this manuscript. Hemagglutinin (HA) epitope‐tagged human Calcitonin (CT) receptor (CT(a) splice variant) and myc‐tagged human RAMP1 were used as described previously. ^27 HA‐tagged human calcitonin receptor‐like receptor (CLR), N‐terminal FLAG‐tagged human RAMP3 and N‐terminal myc‐tagged human RAMP3 were a gift from Professor David Poyner (Aston University) and Professor Patrick Sexton (Monash University), respectively. N‐terminal FLAG‐tagged human RAMP2 was used as described previously. ^28 All receptors and RAMPs were cloned in pcDNA3.0 or pcDNA3.1 plasmid vectors. All plasmid inserts were sequenced at the Centre for Genomics, Proteomics and Metabolomics (University of Auckland) and the sequences were verified prior to use.
Cos7, HEK‐293S, and HEK‐293T cells were cultured as described previously. ^28 , ^29 Cos7 cells were originally supplied by the ATCC to Associate Professor Nigel Birch (University of Auckland). HEK‐293S cells were a gift from Professor David Poyner (Aston University) and HEK‐293T cells a gift from Professor John Taylor (University of Auckland). Briefly, all cell lines were cultured in Dulbecco's Modified Eagle Medium (DMEM) supplemented with 8% heat inactivated fetal bovine serum (FBS) and maintained in a humidified incubator at 37°C with 5% CO2. For transfection, cells were counted (Countess CounterTM; Life Technologies) and plated at a density of 20 000 cells per well in 96‐well plates. The cells were transiently transfected 48 hours prior to assaying using polyethylenimine (PEI), as described previously. ^28 , ^29 In all experiments a total of 0.25 μg DNA was transfected per well. In the majority of experiments 0.25 μg DNA of receptor‐containing plasmid or the pcDNA3.1 plasmid without an insert was used. For experiments involving RAMPs, 0.125 μg of receptor DNA and 0.125 μg of RAMP‐containing plasmid DNA were transfected to give a 1:1 ratio of receptor to RAMP. […]
cAMP accumulation in Cos7 cells transfected with hCRF1α or hCRF2α receptors was measured using the LANCE cAMP detection assay kit (PerkinElmer Life and Analytical Sciences) as described previously. ^30 Briefly, culture media was removed and replaced with DMEM containing 0.1% bovine albumin serum (BSA) and 1 mmol/L 3‐isobutyl‐1‐methylxanthine (IBMX) for 30 minutes at 37°C. […] Samples were shaken for 15 minutes before 5 µL cell lysate was transferred to a white 384‐well optiplate and processed for cAMP quantification as described previously. ^31 Samples were read using an Envision plate reader (PerkinElmer). cAMP concentrations were determined from a standard curve generated in duplicate. […]

The subject of test [2] is CRF receptor type 1. Details: method as in PMID 17057757. Particulars: blockade of UCN1; cited from earlier work.
Test [3] concerns the target T2, CRF2 receptor (hCRF2α) (Homo sapiens, UniProt Q13324).
T2 construct: host or cells: Cos7 cells, transient transfection (PEI), pcDNA3.0/3.1 vector
T2 sequence (Q13324 1-411): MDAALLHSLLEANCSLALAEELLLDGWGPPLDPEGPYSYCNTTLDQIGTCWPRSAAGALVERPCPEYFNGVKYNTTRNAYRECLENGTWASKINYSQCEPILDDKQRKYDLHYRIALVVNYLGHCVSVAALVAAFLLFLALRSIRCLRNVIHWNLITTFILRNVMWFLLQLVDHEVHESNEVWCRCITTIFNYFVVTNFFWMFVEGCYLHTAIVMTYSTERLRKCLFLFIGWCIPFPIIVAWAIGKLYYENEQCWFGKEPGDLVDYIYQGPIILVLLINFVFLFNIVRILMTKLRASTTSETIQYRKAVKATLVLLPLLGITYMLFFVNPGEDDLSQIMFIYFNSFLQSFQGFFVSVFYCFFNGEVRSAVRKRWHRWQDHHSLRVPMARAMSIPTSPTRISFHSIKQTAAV
Briefly: Antagonism of agonist-mediated cAMP accumulation in Cos7 cells expressing CRF2 receptors. The test is classed as cell-based. The conditions noted are these: for Kb: hCRF2α, global Schild analysis, mean ± SEM, n = 5, read-out: antagonist potency (pKB) (converted).
Text: as §1
(§2) Cos7, HEK‐293S, and HEK‐293T cells were cultured as described previously. ^28 , ^29 Cos7 cells were originally supplied by the ATCC to Associate Professor Nigel Birch (University of Auckland). HEK‐293S cells were a gift from Professor David Poyner (Aston University) and HEK‐293T cells a gift from Professor John Taylor (University of Auckland). Briefly, all cell lines were cultured in Dulbecco's Modified Eagle Medium (DMEM) supplemented with 8% heat inactivated fetal bovine serum (FBS) and maintained in a humidified incubator at 37°C with 5% CO2. For transfection, cells were counted (Countess CounterTM; Life Technologies) and plated at a density of 20 000 cells per well in 96‐well plates. The cells were transiently transfected 48 hours prior to assaying using polyethylenimine (PEI), as described previously. ^28 , ^29 In all experiments a total of 0.25 μg DNA was transfected per well. In the majority of experiments 0.25 μg DNA of receptor‐containing plasmid or the pcDNA3.1 plasmid without an insert was used. For experiments involving RAMPs, 0.125 μg of receptor DNA and 0.125 μg of RAMP‐containing plasmid DNA were transfected to give a 1:1 ratio of receptor to RAMP. Where the RAMP or receptor were transfected alone, the ratio of DNA was made up with the pcDNA3.1 plasmid.
(§3) cAMP accumulation in Cos7 cells transfected with hCRF1α or hCRF2α receptors was measured using the LANCE cAMP detection assay kit (PerkinElmer Life and Analytical Sciences) as described previously. ^30 Briefly, culture media was removed and replaced with DMEM containing 0.1% bovine albumin serum (BSA) and 1 mmol/L 3‐isobutyl‐1‐methylxanthine (IBMX) for 30 minutes at 37°C. Cells were incubated for an additional 15 minutes at 37°C with media or agonist concentrations of 1 pmol/L to 1 µmol/L for agonist only assays or 10 pmol/L to 10 µmol/L concentrations for antagonist experiments. Antagonists were added simultaneously or immediately prior to the addition of agonists. To stop cell stimulation and extract cAMP, the contents of the wells were replaced with 50 µL absolute ethanol. Samples were left at −20°C for a minimum of 10 minutes. The ethanol was evaporated and replaced with 50 µL of cAMP detection buffer. Samples were shaken for 15 minutes before 5 µL cell lysate was transferred to a white 384‐well optiplate and processed for cAMP quantification as described previously. ^31 Samples were read using an Envision plate reader (PerkinElmer). cAMP concentrations were determined from a standard curve generated in duplicate.
(§4) In all experiments the position of peptides and antagonists (pharmacology) or transfected receptors (ELISAs) on assay plates was randomized during each independent experiment, which are independent biological replicates. In all cases, duplicate, triplicate, or quadruplicate technical replicates were conducted for each independent experiment.

The target of test [4] is T1, CRF1 receptor (hCRF1α). As to the kind of experiment: Antagonism of agonist-mediated cAMP accumulation in Cos7 cells expressing CRF1 receptors. The test is classed as cell-based. The conditions noted are these: for Kb: hCRF1α, global Schild analysis, mean ± SEM, read-out: antagonist potency (pKB) (converted).
Test [5] concerns CRF2 receptor. Particulars: cited from earlier work.
Test [6] concerns the target T2, CRF2 receptor (hCRF2α). As to the kind of experiment: cAMP accumulation (LANCE) in Cos7 cells transfected with hCRF2α, agonist stimulation. Format: cell-based. Particulars: COS-7; cAMP, CRF2 receptor, antagonist alone; n = 3; read-out: E max (partial agonism of antagonist).
Text: as §1, §2, §3, §4

With “DLTFHLLREMLEMAKAEQEAEQAALNRLLLEEA-NH2 [α‐helical CRF(9‐41)] [listing 1 of 2 here]”, the Emax in test [1] (COS-7, read-out: E max (partial agonism of antagonist)) turned out to be 14.8%.

Take `CCCCN(CC)c1nc(C)nc2c1c(C)c(C)n2-c1c(C)cc(C)cc1C` [antalarmin]: in test [2], the “mode of antagonism of Gαi activity” value is on record as “non‐competitive antagonist of Gαi activity” and the “mode of antagonism of Gαs activity” value is reported as “competitive antagonist of Gαs”.

“DLTFHLLREMLEMAKAEQEAEQAALNRLLLEEA-NH2 [α‐helical CRF(9‐41)] [listing 2 of 2 here]”: the Kb in test [3] (agonist CRF, cAMP) is 18.6 nM; in test [4] (agonist CRF, cAMP, n = 5), 170 nM.

With `CCCC[C@H](NC(=O)[C@H](CCCCN)NC(=O)[C@H](CCCNC(=N)N)NC(=O)[C@H](CC(C)C)NC(=O)[C@](C)(CC(C)C)NC(=O)[C@H](Cc1c[nH]cn1)NC(=O)[C@@H](Cc1ccccc1)NC(=O)[C@H](CO)NC(=O)[C@H](CC(C)C)NC(=O)[C@H](CC(=O)O)NC(C)=O)C(=O)N[C@H](C(=O)N[C@@H](CCC(=O)O)C(=O)N[C@H](C(=O)N[C@@H](CCC(=O)O)C(=O)N[C@@H](CCCCN)C(=O)N[C@@H](CCC(N)=O)C(=O)N[C@@H](CCC(=O)O)C(=O)N[C@@H](CCCCN)C(=O)N[C@@H](CCC(=O)O)C(=O)N[C@@H](CCCCN)C(=O)N[C@@H](CCC(N)=O)C(=O)N[C@@H](CCC(N)=O)C(=O)N[C@@H](C)C(=O)N[C@H]1CCC(=O)NCCCC[C@@H](C(=O)N[C@@H](CC(C)C)C(=O)N[C@@H](CC(C)C)C(=O)N[C@@H](CC(C)C)C(=O)N[C@@H](CC(=O)O)C(=O)N[C@@](C)(CC(C)C)C(=O)N[C@H](C(N)=O)[C@@H](C)CC)NC(=O)[C@H](CC(N)=O)NC(=O)[C@H](CC(N)=O)NC1=O)[C@@H](C)CC)[C@@H](C)CC` [astressin2B], the partial agonism result in test [1] was “this was not the case at the CRF1 receptor”. Besides, the selectivity entry in test [5] is recorded as “selective antagonist of the CRF2 receptor”. In addition, the “potency against CRF‐mediated relative to UCN1‐mediated cAMP signaling” value in test [3] (CRF2 receptor) was “approximately 10 fold”. Moreover, the Kb in test [3] (agonist CRF, cAMP) is 0.302 nM; in test [3] (agonist UCN1, cAMP), 3.63 nM; in test [4] (agonist CRF, cAMP, n = 5), 479 nM; in test [4] (agonist UCN1, cAMP, n = 5 (CP‐376,395), n = 3 (astressin2B)), > 5010 nM. In addition, in test [3] (antagonism of either CRF or UCN1‐induced cAMP signaling), the “potency at CRF2 receptor compared to CRF1 receptor” value is recorded as “at least 1000 fold”. For the same compound, the Emax in test [6] stood at 11%. Further, the “antagonism of UCN1‐mediated cAMP signaling” value in test [4] (up to 5 μmol/L, CRF1 receptor) was “did not measurably antagonize”.
